From patent publication US12421206B2, “Aryl-n-aryl derivatives for treating a RNA virus infection” (ABIVAX, priority 2018, dated 2025)

Legend:
[1] = system: Chikungunya Virus (CHIKV) strain LR2006-OPY1 with GFP modification (CHIK 5'LR); test: microbe, parasite or virus in culture; assay type: cell-based; conditions: HEK-293T, infected HEK293T cells; for inhibition at 1 µM: compounds at 1 μM, MOI 0.1, 22 h, mean of 2 experiments, values above 100 lowered to 100, read-out: % CHIKV Inhibition Mean (n = 2); for IC50: second round of experiments, range stated for listed compounds, read-out: IC50 (CHIKV inhibition)
Protocol: The ability of the compounds to inhibit viral replication was assessed with an experiment in which infected cells were treated by compounds of formula (Ie) at 1 μM. As a positive control for inhibition of Chikungunya, Ribavirin was used. Toxicity of the compounds was assessed in parallel.
Human embryonic kidney cells 293T (HEK293T, CRL-11268) were maintained in Dulbecco's modified Eagle's Medium (DMEM, 31966-021, Thermo Fisher Scientific) supplemented with 10% of fetal bovine serum (FBS), penicillin and streptomycin. After removal of the medium, cells were washed with Ca^2+ and Mg^2+-free salt solution to remove all traces of serum. After aspiration of wash solution, cells were dissociated with 0.25% Trypsin-EDTA solution and incubated 30 s at least in 37° C. incubator. Concentration of cell suspension was determined by an automatic cell counter (EVE, NanoEntek) and, if needed, adjusted to 0.33×10^6 cells/mL with DMEM medium supplemented with 10% FBS.
100 μL of the cell suspension were dispatched in a ViewPlate-96 Black (6005182, PerkinElmer) and in a transparent 96-well cell culture plate (655180, Greiner bio-one). After an incubation for 24 h at 37° C. under 5% of CO2, compounds were added at the proper concentration.
An intermediate dilution was prepared with DMSO (D8418, Sigma) at 2 mM in a 96-well V-bottom microplate from the stock solution:
Mix 1 μL of the 50 mM stock library in 25 μL of DMSO.
Mix 2 μL of the 25 mM stock library in 25 μL of DMSO.
An intermediate dilution was prepared with DMSO (D8418, Sigma) at 25 mM in a 96-well V-bottom microplate from the stock solution:
Mix 2 μL of the 50 mM stock library in 2 μL of DMSO.
Perform serial dilution in 2 μL of DMSO 13 times to reach 0.0015 mM. Proceed as follows in table III:
For both screen and determination of IC50, 1 μL of each solution was added in a 1 mL Masterblock 96 wells (Greiner bio-one, 780261) containing 1 mL of DMEM medium. As a positive control, 5 μL of a 80 mM Ribavirin solution (R9644, Sigma) is added to 1 mL of DMEM. On the other hand, DMSO is used as a negative control.
[…]. Vector Borne Zoonotic Dis. 2006; 6(4)). This modified virus was used to infect cells at MOI 0.1. […].
Medium was removed after 22 h at 37° C. under 5% of CO2 and cells were washed as described above. 60 μL of RIPA buffer (50 mM Tris-HCl pH8, 100 mM NaCl, 1 mM MgCl2, 1% Triton X-100) was added to cells and incubated for at least 20 min before reading fluorescence signal. Pierce 660 nm Protein Assay Reagent (22660, Thermo scientific) was used to normalize fluorescence signal by protein quantity.
• A first round of experiments has been performed wherein the results are expressed as inhibition percentage, which is calculated as follows, through the following steps: • 1. Fluorescence intensity (FI)/Absorbance 660 nm (A660)=A
This ratio allows considering the infection (GFP virus) to the protein amount. • 2. A′=A−background noise of non-infected plate, • 3. B=Fluorescence intensity (FI)/Absorbance 660 nm (A660) of infected but non treated plates, • 4. C=A′/B, which is then converted as the percentage of infection after treatment, compared to non-treated sample, and subsequently as the infection percentage. For instance, a value of 100 in Table IV here below means that, after treatment, the signal attributed to GFP fluorescence is abolished, which is correlated to the absence of infection. • 5. C′=100−C
This value corresponds to the inhibition's percentage.
The following Table IV encompasses said C′ value for some compounds, as calculated above with a mean of 2 experiments, and corresponding standard deviation.
Some values were originally above 100. In these cases, the value has been lowered to 100. This means that some molecules also have an impact on the viability of the cells. In other words, the A value may be lower than the background noise.
Moreover, for each measure, the test was performed with Ribavirin as control. The value of the inhibition percentage was checked, giving 100%.

RSV A2 = test: RSV inhibition (cytopathic effect inhibition) using Viral ToxGlo assay in HEp-2 cells; assay type: cell-based; conditions: human respiratory syncytial virus, RSV A2, MOI 0.5, HEp-2 cells, 72 h p.i.
Procedure, shortened: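 HEp-2 cells in EMEM with 2% FBS were infected with RSV A2 at MOI 0.5 immediately after compound (≤1% DMSO) and incubated 72 h at 37 °C. Viral ToxGlo luminescence gave % cytopathic effect inhibition versus virus control, plus cytotoxicity versus cell control; EC50 derived from dose-response.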

DENV-2 strain 16681 = test: DENV-2 inhibition (cytopathic effect inhibition) using Viral ToxGlo assay in A549 cells; assay type: cell-based, Dengue 2 virus; conditions: Dengue virus, DENV2, 120 h, compounds at 10 μM, MOI 0.5, 5 days p.i., read-out: % DENV-2 Inhibition Mean (n = 3)
Protocol: Protocol for Screening Antiviral Compounds for DENV-2 Inhibition and Cytotoxicity Using Viral ToxGlo Assay
A549 cells were maintained in Dulbecco's Modified Eagle Medium (DMEM) supplemented with 10% fetal bovine serum, 100 U/ml penicillin and 100 μg/ml streptomycin. For the purposes of the screening assay they were grown to 90% confluency, trypsinized and recovered. The trypsin was neutralised with cell culture media and cells were centrifuged at 150×g for 5 minutes before discarding the supernatant and resuspending cell pellet in assay media (DMEM supplemented with 2% fetal bovine serum and 100 U/ml penicillin and 100 μg/ml streptomycin). The cells were seeded into 96-well white clear-bottomed cell culture plates at a density of 1.0×10^4 cells/well in 50 μl. For the media/background control column assay media only was added. Cell plates were placed in a humid chamber and incubated overnight at 37° C./5% CO2. After overnight incubation cells were checked for confluency and healthy appearance.
Test compounds were prepared at a final concentration of 10 μM in a maximum DMSO concentration of 1% (final assay concentration maximal 0.1% DMSO) and added to the cell plates in volumes of 10 μl. For cell control and virus control wells the test article solvent only was added. As a positive inhibition control, 7-Deaza-2′-C-methyladenosine was added at 100 μM in 3 wells. Virus (DENV-2 strain 16681) or assay media for cytotoxicity test wells and media/cell control wells was added immediately after test articles at an MOI of 0.5, 40 for 96 well plates respectively. Virus suspension was prepared by thawing DENV-2 frozen stocks and diluting to the required concentration of plaque forming units in assay media.
Cell plates were further incubated inside a humid chamber for 5 days p.i at 37° C./5% CO2. After the incubation period cells were observed under the microscope to check for characteristic cytopathic effect in virus control wells and healthy cells in the cell control wells. After plates were adjusted to room temperature 20 μl Viral ToxGlo (Promega) was added to each well of the 96-well cell plates. Plates were incubated at room temperature for 5 minutes before measuring the luminescence on a spectrophotometer (Envision, PerkinElmer).
DENV-2 inhibition was calculated as percentage of cytopathic effect inhibition relative to the virus control and cytotoxicity as percentage of cell survival relative to cell control wells.

O=C(NCCC1CCCC1)c1cccc(Nc2ccc(OCc3ccccn3)cc2)c1 [Compound 36, N-(2-cyclopentylethyl)-3-((4-(pyridin-2-ylmethoxy)phenyl)amino)benzamide]
inhibition at 1 µM [1]: 99% | EC50 (RSV A2): 232 nM

CC(C)CCNC(=O)c1cccc(Nc2ccc(OCc3ccccn3)cc2)c1 [Compound 37, N-isopentyl-3-((4-(pyridin-2-ylmethoxy)phenyl)amino)benzamide]
inhibition at 1 µM [1]: 100%

Cc1cc(OCc2ccccn2)ccc1Nc1cccc(C(=O)NCCC2CCCC2)c1 [Compound 39, N-(2-cyclopentylethyl)-3-((2-methyl-4-(pyridin-2-ylmethoxy)phenyl)amino)benzamide]
inhibition at 1 µM [1]: 98% | EC50 (RSV A2): 185 nM

Cc1cc(Nc2cccc(C(=O)NCCC3CCCC3)c2)ccc1OCc1ccccn1 [Compound 40, N-(2-cyclopentylethyl)-3-((3-methyl-4-(pyridin-2-ylmethoxy)phenyl)amino)benzamide]
inhibition at 1 µM [1]: 99% | inhibition at 10 µM (DENV-2 strain 16681): 71%

O=C(NCCC1CCCC1)c1cccc(Nc2ccc(OCc3ccccn3)nc2)c1 [Compound 41, N-(2-cyclopentylethyl)-3-((6-(pyridin-2-ylmethoxy)pyridin-3-yl)amino)benzamide]
inhibition at 1 µM [1]: 99%

COc1cc(Nc2cccc(C(=O)NCCC3CCCC3)c2)ccc1OCc1ccccn1 [Compound 43, N-(2-cyclopentylethyl)-3-((3-methoxy-4-(pyridin-2-ylmethoxy)phenyl)amino)benzamide]
inhibition at 1 µM [1]: 100% | inhibition at 10 µM (DENV-2 strain 16681): 71%

Cc1cc(OCc2ccccn2)ccc1Nc1cccc(C(=O)NCCC2CCCCC2)c1 [Compound 47, N-(2-cyclohexylethyl)-3-((2-methyl-4-(pyridin-2-ylmethoxy)phenyl)amino)benzamide]
inhibition at 1 µM [1]: 96% | EC50 (RSV A2): 182 nM

O=C(NCCC1CCCC1)c1cccc(Nc2ccc(OCc3ccccc3F)cc2)c1 [Compound 50, N-(2-cyclopentylethyl)-3-((4-((2-fluorobenzyl)oxy)phenyl)amino)benzamide]
inhibition at 1 µM [1]: 100%

N#Cc1ccccc1COc1ccc(Nc2cccc(C(=O)NCCC3CCCC3)c2)cc1 [Compound 51, 3-((4-((2-cyanobenzyl)oxy)phenyl)amino)-N-(2-cyclopentylethyl)benzamide]
inhibition at 1 µM [1]: 100%

O=C(NCCC1CCCC1)c1cccc(Nc2ccc(OCc3ccccc3)cc2)c1 [Compound 52, 3-((4-(benzyloxy)phenyl)amino)-N-(2-cyclopentylethyl)benzamide]
inhibition at 1 µM [1]: 99%

O=C(NCCC1CCCC1)c1cccc(Nc2ccc(OCc3ccccn3)c(O)c2)c1 [Compound 53, N-(2-cyclopentylethyl)-3-((3-hydroxy-4-(pyridin-2-ylmethoxy)phenyl)amino)benzamide]
IC50 [1]: 1 to 400 nM

Cc1cc(OCc2ccccn2)ccc1Nc1cccc(C(=O)NCCC(C)C)c1 [Compound 54, N-isopentyl-3-((2-methyl-4-(pyridin-2-ylmethoxy)phenyl)amino)benzamide]
IC50 [1]: 1 to 400 nM | EC50 (RSV A2): 177 nM

CCc1cc(OCc2ccccn2)ccc1Nc1cccc(C(=O)NCCC(C)C)c1 [Compound 57, 3-((2-ethyl-4-(pyridin-2-ylmethoxy)phenyl)amino)-N-isopentylbenzamide]
IC50 [1]: 1 to 400 nM | EC50 (RSV A2): 26 nM

CCc1cc(OCc2ccccn2)ccc1Nc1cccc(C(=O)NCCC2CCCC2)c1 [Compound 58, N-(2-cyclopentylethyl)-3-((2-ethyl-4-(pyridin-2-ylmethoxy)phenyl)amino)benzamide]
IC50 [1]: 1 to 400 nM

Cc1cc(OCc2ccccn2)ccc1Nc1cccc(C(=O)NCCC2CC(F)(F)C2)c1 [Compound 70, N-(2-(3,3-difluorocyclobutyl)ethyl)-3-((2-methyl-4-(pyridin-2-ylmethoxy)phenyl)amino)benzamide]
IC50 [1]: 1 to 400 nM | EC50 (RSV A2): 660 nM

Cc1cc(OCc2ccccn2)ccc1Nc1cccc(C(=O)NC2CCCC2)c1 [Compound 71, N-cyclopentyl-3-((2-methyl-4-(pyridin-2-ylmethoxy)phenyl)amino)benzamide]
IC50 [1]: 1 to 400 nM | EC50 (RSV A2): 185 nM

c1ccc(COc2ccc(Nc3cccc(OCCCC4CCCC4)c3)cc2)nc1 [Compound 73, 3-(3-cyclopentylpropoxy)-N-(4-(pyridin-2-ylmethoxy)phenyl)aniline]
inhibition at 1 µM [1]: 100%

O=C(CCC1CCCCC1)Nc1cccc(Nc2ccc(OCc3ccccc3)cc2F)c1 [Compound 150, N-(3-{[4-(benzyloxy)-2-fluorophenyl]amino}phenyl)-3-cyclohexylpropanamide]
EC50 (RSV A2): 597 nM | inhibition at 10 µM (DENV-2 strain 16681): 78%

c1ccc(COc2ccc(Nc3cccc(OC4COC4)c3)c(C3CC3)c2)nc1 [Compound 151, 2-cyclopropyl-N-[3-(oxetan-3-yloxy)phenyl]-4-[(pyridin-2-yl)methoxy]aniline]
EC50 (RSV A2): 671 nM | inhibition at 10 µM (DENV-2 strain 16681): 63%

CN(c1cccc(OCCCC2CCCCC2)c1)c1ccc(OCc2ccccn2)cc1C1CC1 [Compound 156, N-[3-(3-cyclohexylpropoxy)phenyl]-2-cyclopropyl-N-methyl-4-[(pyridin-2-yl)methoxy]aniline]
EC50 (RSV A2): 1060 nM | inhibition at 10 µM (DENV-2 strain 16681): 82%
